Experimental data taken from patent US20260130933A1, “PHARMACEUTICAL COMPOSITION FOR PREVENTION OR TREATMENT OF NEPHROPATHY AND/OR DIABETES MELLITUS, COMPRISING ENAVOGLIFLOZIN” (DAEWOONG PHARMACEUTICAL CO., LTD., priority 2022, published 2026).

Experiment: Example 2: phase 3 trial, enavogliflozin 0.3 mg vs dapagliflozin 10 mg once a day for 24 weeks added to metformin in patients with type 2 diabetes (same efficacy, exploratory and safety endpoints)
Format: in vivo, human
Procedure: Subjects who met the inclusion/exclusion criteria were administered a placebo of the clinical trial drug under single-blind (subject blinding) conditions during a 2-week run-in period while continuing to receive metformin. […] The randomized subjects were administered two tablets of the clinical trial drug for each administration group once a day, and then visited the institution at weeks 6, 12, 18, and 24 during the 24-week administration period to conduct efficacy and safety evaluations.
• 1. Change in HbA1c at week 24 after administration of clinical trial drug compared to Visit 2 (randomization)
• 1. Change in HbA1c at each time point of weeks 6, 12, and 18 after administration of clinical trial drug compared to Visit 2 (randomization) • 2. Change in FPG at each time point of weeks 6, 12, 18, and 24 after administration of clinical trial drug compared to Visit 2 (randomization) • 3. Proportion of subjects achieving HbA1c<7% at each time point of weeks 6, 12, 18, and 24 after administration of clinical trial drug • 4. Proportion of subjects achieving HbA1c<6.5% at each time point of weeks 6, 12, 18, and 24 after administration of clinical trial drug • 5. Proportion of subjects achieving therapeutic response (HbA1c change (HbA1c at Visit 2-HbA1c at each evaluation time point)>0.5% or HbA1c<7% at each evaluation time point compared to Visit 2 (randomization)) at each time point of weeks 6, 12, 18 and 24 after administration of clinical trial drug
• 1. Change in fasting c-peptide at each time point of weeks 6, 12, 18, and 24 after administration of clinical trial drug compared to Visit 2 (randomization) • 2. Change in body weight at each time point of weeks 6, 12, 18, and 24 after administration of clinical trial drug compared to Visit 2 (randomization) • 3. Change in fasting lipid concentration (total cholesterol, LDL-C, HDL-C, and triglycerides) at each time point of weeks 6, 12, 18, and 24 after administration of clinical trial drug compared to Visit 2 (randomization) • 4. Changes in systolic or diastolic blood pressure at each time point of weeks 6, 12, 18, and 24 after administration of clinical trial drug compared to Visit 2 (randomization) • 5. Changes in β-cell function and insulin resistance measured by HOMA-β and HOMA-IR at each time point of weeks 6, 12, 18, and 24 after administration of clinical trial drug compared to Visit 2 (randomization) • 6. Changes in renal function-related indicators (UACR, UGCR) measured by UACR at each time point of weeks 6, 12, 18, and 24 after administration of clinical trial drug compared to Visit 2 (randomization) • 7. Changes in obesity-related indicators (adiponectin, leptin) at each time point of weeks 6, 12, 18, and 24 after administration of clinical trial drug compared to Visit 2 (randomization)

[1] = week 18, per-protocol set, enavogliflozin 0.3 mg, dapagliflozin 10 mg
[2] = week 24, listed as enavogliflozin
[3] = week 24, modified per-protocol set 1, enavogliflozin 0.3 mg, dapagliflozin 10 mg
[4] = week 24, per-protocol set, enavogliflozin 0.3 mg vs dapagliflozin 10 mg
[5] = week 24, per-protocol set, enavogliflozin 0.3 mg, dapagliflozin 10 mg

SMILES: OC[C@H]1O[C@@H](c2cc(Cc3ccc(C4CC4)cc3)c(Cl)c3c2CCO3)[C@H](O)[C@@H](O)[C@@H]1O [Enavogliflozin, (2S,3R,4R,5S,6R)-2-(7-chloro-6 (4-cyclopropylbenzyl)-2,3-dihydrobenzofuran-4-yl)-6-(hydroxymethyl)tetrahydro-2H-pyran-3,4,5-triol]
- Subjects achieving HbA1c target of <6.5%, (%) [1]: (9.89) %
- Subjects achieving therapeutic glycemic response, (%) [1]: (80.22) %
- body weight, Mean (SD) [1]: 66.72(11.26) kg
- body weight, Median [1]: 64.30 kg
- fasting c-peptide, Mean (SD) [1]: 0.65(0.24) ng/mL
- fasting c-peptide, Median [1]: 0.61 ng/mL
- FPG change from baseline, LS mean (SE) (week 24): −32.53(1.76) mg/dL
- HOMA-IR change from baseline, LS mean (SE) (week 24): −1.85(0.13)
- HOMA-β change from baseline, LS mean (SE) (week 24): 6.94(3.17)
- HbA1c change from baseline, LS mean (SE) (week 24): −0.80 % p
- HbA1c change from baseline, Mean (SD) (week 24): −0.78 % p
- HbA1c, Mean (week 24): 6.98%
- LDL-C change from baseline, LS mean (SE) (week 24): 1.64(1.92) mg/dL
- Subjects achieving HbA1c target of <7% (week 24): (61.05) %
- Subjects achieving HbA1c<6.5% (week 24): 13.68%
- Subjects achieving therapeutic response (HbA1c change >0.5% or HbA1c<7%) (week 24): 78.95%
- UACR change from baseline, LS mean (SE) (week 24): −24.29(3.38) g/kg
- UGCR change from baseline, LS mean (SE) (week 24): 60.48(2.12) mg/mg
- diastolic blood pressure change from baseline, LS mean (SE) (week 24): −5.41(0.65) mmHg
- fasting c-peptide change from baseline, LS mean (SE) (week 24): −0.10(0.16) ng/ml
- leptin change from baseline, LS mean (SE) (week 24): −2.40(0.51) ng/mL
- FPG change from baseline, LS mean difference (week 24, vs dapagliflozin): -3.38 mg/dL
- HDL-C change from baseline, LS mean difference (week 24, vs dapagliflozin): -0.14 mg/dL
- HOMA-IR change from baseline, LS mean difference (week 24, vs dapagliflozin): −0.53
- HOMA-β change from baseline, LS mean difference (week 24, vs dapagliflozin): −4.99
- HbA1c change from baseline, LS mean difference (week 24, vs dapagliflozin): −0.04 % p
- LDL-C change from baseline, LS mean difference (week 24, vs dapagliflozin): 0.71 mg/dL
- Odds ratio for achieving HbA1c<6.5% (week 24, vs dapagliflozin): 0.40
- Odds ratio for achieving HbA1c<7% (week 24, vs dapagliflozin): 0.97
- Odds ratio for achieving therapeutic response (week 24, vs dapagliflozin): 1.30
- UACR change from baseline, LS mean difference (week 24, vs dapagliflozin): −6.93
- UGCR change from baseline, LS mean difference (week 24, vs dapagliflozin): 15.54 mg/mg
- body weight change from baseline, LS mean difference (week 24, vs dapagliflozin): -0.18 kg
- diastolic blood pressure change from baseline, LS mean difference (week 24, vs dapagliflozin): −1.15 mmHg
- fasting c-peptide change from baseline, LS mean difference (week 24, vs dapagliflozin): -0.06 ng/mL
- leptin change from baseline, LS mean difference (week 24, vs dapagliflozin): -1.12 ng/mL
- systolic blood pressure change from baseline, LS mean difference (week 24, vs dapagliflozin): 0.63 mmHg
- total cholesterol change from baseline, LS mean difference (week 24, vs dapagliflozin): 2.40 mg/dL
- triglyceride change from baseline, LS mean difference (week 24, vs dapagliflozin): 1.63 mg/dL
- HbA1c change from baseline, LS mean (SE) [2]: −0.80(0.06) % p
- HbA1c change from baseline, Mean (SD) [2]: −0.78(0.73) % p
- Subjects achieving HbA1c target of <7% [2]: 61.05%
- Change from baseline in total cholesterol, ANCOVA LS mean difference (week 24, modified per-protocol set 1, enavogliflozin 0.3 mg vs dapagliflozin 10 mg): 2.40 mg/dL
- Change from baseline in Total cholesterol, ANCOVA LS mean (SE) [3]: 9.13(2.22) mg/dL
- Change from baseline in Total cholesterol, Mean (SD) [3]: 7.99(20.78) mg/dL
- Change from baseline in total cholesterol, Median [3]: 11.00 mg/dL
- fasting Total cholesterol, Mean (SD) [3]: 159.42(32.17) mg/dL
- fasting Total cholesterol, Median [3]: 157.00 mg/dL
- Change from baseline in FPG, ANCOVA LS mean difference [4]: -3.38 mg/dL
- Change from baseline in body weight, ANCOVA LS mean difference [4]: -0.18 kg
- Change from baseline in fasting c-peptide, ANCOVA LS mean difference [4]: -0.06 ng/mL
- Odds ratio for achieving HbA1c target of <6.5%, logistic regression model [4]: 0.40
- Odds ratio for achieving therapeutic glycemic response, logistic regression model [4]: 1.30
- Change from baseline in FPG, ANCOVA LS mean (SE) [5]: -32.53 mg/dL
- Change from baseline in FPG, Mean (SD) [5]: -31.77 mg/dL
- Change from baseline in FPG, Median [5]: -31.00 mg/dL
- Change from baseline in body weight, ANCOVA LS mean (SE) [5]: −3.77(0.33) kg
- Change from baseline in body weight, Mean (SD) [5]: −3.78(3.77) kg
- Change from baseline in body weight, Median [5]: -3.60 kg
- Change from baseline in fasting c-peptide, ANCOVA LS mean (SE) [5]: −0.10(0.02) ng/mL
- Change from baseline in fasting c-peptide, Mean (SD) [5]: −0.10(0.16) ng/mL
- Change from baseline in fasting c-peptide, Median [5]: -0.07 ng/mL
- FPG, Mean (SD) [5]: 113.58 mg/dL
- FPG, Median [5]: 113.00 mg/dL
- Subjects achieving HbA1c target of <6.5%, (%) [5]: (13.68) %
- Subjects achieving therapeutic glycemic response, (%) [5]: (78.95) %
- body weight, Mean (SD) [5]: 66.39(10.90) kg
- body weight, Median [5]: 64.40 kg
- fasting c-peptide, Mean (SD) [5]: 0.62(0.22) ng/mL
- fasting c-peptide, Median [5]: 0.56 ng/mL
